# Results reported in ChEMBL document CHEMBL5316318, “Structural Modification and Pharmacological Evaluation of Substituted Quinoline-5,8-diones as Potent NSD2 Inhibitors” (J Med Chem, 2023).
# Activity calls are given as the source filed them. No cut-off for these calls is given here.
# What was measured:
# [1] = target: Ras-related protein R-Ras2 (Homo sapiens) (UniProt P62070); experiment: Inhibition of RRAS2 transcriptional activation in human KMS-11 cells assessed as reduction in RRAS2 mRNA expression at 0.5 uM by qRT-PCR analysis; assay type: cell-based
# [2] = AUClast in ICR mouse at 3 mg/kg, po measured for 24 hrs by LC-MS/MS analysis; assay type: ADME, organism-based; parameters: dose 3 mg/kg, time 24 hrs, route po; conditions: in vivo
# [3] = Apparent permeability coefficient, Papp in MDCK cells; assay type: ADME, cell-based, Canis lupus familiaris; conditions: dog
# [4] = Cmax in ICR mouse at 3 mg/kg, po measured for 24 hrs by LC-MS/MS analysis; assay type: ADME, organism-based; parameters: dose 3 mg/kg, time 24 hrs, route po; conditions: in vivo
# [5] = target: Histone-lysine N-methyltransferase NSD2 (Homo sapiens) (UniProt O96028); experiment: Binding affinity to human recombinant NSD2 (941 to 1240 residues) at 200 uM by CPMG based NMR analysis
# KMS-11 [6] = experiment: Antitumor activity against human KMS-11 cells xenografted in SCID mouse assessed as tumor growth inhibition at 75 mg/kg, po administered daily for 21 days and measured every 3 days relative to control; assay type: functional; conditions: KMS-11, 504 h, time 21 day, read-out: TGI
# Daudi = experiment: Antiproliferative activity against human Daudi cells assessed as inhibition of cell growth incubated for 6 days by CCK-8 assay; assay type: functional, cell-based; conditions: 144 h
# KMS-11 [7] = experiment: Modulation of Hippo signaling pathway in human KMS-11 cells at 1 uM incubated for 48 hrs by RNA-Seq analysis; assay type: cell-based; conditions: filed as modulator
# [8] = AUClast in ICR mouse at 1 mg/kg, iv measured for 24 hrs by LC-MS/MS analysis; assay type: ADME, organism-based; parameters: dose 1 mg/kg, time 24 hrs, route iv; conditions: in vivo
# MOLT-4 = experiment: Antiproliferative activity against human MOLT-4 cells harboring wild type NSD2 assessed as inhibition of cell growth incubated for 6 days by CCK-8 assay; assay type: functional, cell-based; conditions: MOLT-4, 144 h
# KMS-11 [9] = experiment: Induction of apoptosis in human KMS-11 cells assessed as dead cells at 0.2 uM incubated for 72 hrs by Annexin V-FITC/PI staining based flow cytometry analysis (reference value: 6.48%); assay type: functional
# Ras-related protein R-Ras2 (Homo sapiens), sequence (P62070 whole entry): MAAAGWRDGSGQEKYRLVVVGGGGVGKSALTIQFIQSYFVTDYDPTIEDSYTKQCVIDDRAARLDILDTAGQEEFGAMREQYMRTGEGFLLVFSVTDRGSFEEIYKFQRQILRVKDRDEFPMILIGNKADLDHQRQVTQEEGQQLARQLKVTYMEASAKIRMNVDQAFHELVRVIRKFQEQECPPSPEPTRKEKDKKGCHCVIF
# Histone-lysine N-methyltransferase NSD2 (Homo sapiens), sequence (O96028 whole entry, the tested form may be a part): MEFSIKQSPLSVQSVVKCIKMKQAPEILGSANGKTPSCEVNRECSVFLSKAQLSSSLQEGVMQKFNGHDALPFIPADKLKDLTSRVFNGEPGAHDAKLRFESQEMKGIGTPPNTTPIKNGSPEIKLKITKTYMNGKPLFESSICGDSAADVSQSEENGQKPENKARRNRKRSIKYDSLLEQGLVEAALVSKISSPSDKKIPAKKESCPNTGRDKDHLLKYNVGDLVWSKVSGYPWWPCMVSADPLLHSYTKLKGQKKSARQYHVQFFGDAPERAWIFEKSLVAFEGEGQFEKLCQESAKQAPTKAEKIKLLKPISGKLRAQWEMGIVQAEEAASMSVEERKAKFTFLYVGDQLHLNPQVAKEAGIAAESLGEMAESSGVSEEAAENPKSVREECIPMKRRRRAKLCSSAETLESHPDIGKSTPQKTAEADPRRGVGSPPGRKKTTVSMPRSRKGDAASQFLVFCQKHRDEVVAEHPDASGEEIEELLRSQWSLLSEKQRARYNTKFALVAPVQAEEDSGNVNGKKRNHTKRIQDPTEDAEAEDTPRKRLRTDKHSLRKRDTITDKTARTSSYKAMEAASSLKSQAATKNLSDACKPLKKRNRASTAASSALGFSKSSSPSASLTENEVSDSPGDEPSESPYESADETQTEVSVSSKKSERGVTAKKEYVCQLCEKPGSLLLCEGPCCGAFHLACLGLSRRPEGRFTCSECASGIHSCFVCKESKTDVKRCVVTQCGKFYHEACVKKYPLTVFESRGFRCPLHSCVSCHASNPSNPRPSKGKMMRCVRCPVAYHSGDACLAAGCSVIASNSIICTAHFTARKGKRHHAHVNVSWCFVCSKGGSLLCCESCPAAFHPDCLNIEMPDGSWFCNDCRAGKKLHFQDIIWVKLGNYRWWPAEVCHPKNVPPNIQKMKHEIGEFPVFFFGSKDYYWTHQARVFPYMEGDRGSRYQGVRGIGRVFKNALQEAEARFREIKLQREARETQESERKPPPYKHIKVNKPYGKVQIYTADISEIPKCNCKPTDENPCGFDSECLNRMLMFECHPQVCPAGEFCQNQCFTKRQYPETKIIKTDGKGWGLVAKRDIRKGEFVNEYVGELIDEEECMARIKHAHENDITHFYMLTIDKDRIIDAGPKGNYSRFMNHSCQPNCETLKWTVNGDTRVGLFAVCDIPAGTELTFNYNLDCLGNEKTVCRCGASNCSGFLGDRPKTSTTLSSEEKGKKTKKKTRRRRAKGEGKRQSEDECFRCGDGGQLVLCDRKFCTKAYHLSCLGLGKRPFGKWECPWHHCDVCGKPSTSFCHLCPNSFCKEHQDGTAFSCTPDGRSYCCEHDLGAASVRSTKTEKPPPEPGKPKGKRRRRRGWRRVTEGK
structure (smiles),measurement,setting,value
CC#CC(=O)NC12CC(NC3=C(Cl)C(=O)c4ncccc4C3=O)(C1)C2,inhibition,[1],Active
same,AUC(0-t) at 24 h,[2],42700 ng·h/mL
same,Papp,[3],45 ×10⁻⁶ cm/s
same,Cmax,[4],4780 ng/mL
same,Activity,[5],Active
same,inhibition in vivo at 75 mg/kg,KMS-11 [6],56%
same,IC50,Daudi,12.8 µM
same,Activity,KMS-11 [7],Active
same,AUC(0-t) at 24 h,[8],5180 ng·h/mL
same,IC50,MOLT-4,1.23 µM
same,Activity,KMS-11 [9],6.54%
